The values that follow come from ChEMBL document CHEMBL4417631, “Oral peptide inhibitors of interleukin-23 receptor and their use to treat inflammatory bowel diseases” (2017).

*1 amine or outer side, *2 acyl side, *3 side chain or, on linkers, in order; H or OH if unused. Where a SMILES comes first, the peptide text is derived from it. Bridges are numbered along the chain shown (N, C = ends). [ ]: non-standard residue; d: D form. Abu(4-yl) = O=C([C@H](CC[*:3])N[*:1])[*:2]; 2Nal = N[C@@H](Cc1ccc2ccccc2c1)C(=O)O; AEF = NCCOc1ccc(C[C@H](N)C(=O)O)cc1; αMeK = C[C@](N)(CCCCN)C(=O)O; Aib = CC(C)(N)C(=O)O

For data set [1], the target named is T1, Interleukin-23 receptor (Homo sapiens, UniProt Q5VWK5).
T1 sequence (Q5VWK5 whole entry): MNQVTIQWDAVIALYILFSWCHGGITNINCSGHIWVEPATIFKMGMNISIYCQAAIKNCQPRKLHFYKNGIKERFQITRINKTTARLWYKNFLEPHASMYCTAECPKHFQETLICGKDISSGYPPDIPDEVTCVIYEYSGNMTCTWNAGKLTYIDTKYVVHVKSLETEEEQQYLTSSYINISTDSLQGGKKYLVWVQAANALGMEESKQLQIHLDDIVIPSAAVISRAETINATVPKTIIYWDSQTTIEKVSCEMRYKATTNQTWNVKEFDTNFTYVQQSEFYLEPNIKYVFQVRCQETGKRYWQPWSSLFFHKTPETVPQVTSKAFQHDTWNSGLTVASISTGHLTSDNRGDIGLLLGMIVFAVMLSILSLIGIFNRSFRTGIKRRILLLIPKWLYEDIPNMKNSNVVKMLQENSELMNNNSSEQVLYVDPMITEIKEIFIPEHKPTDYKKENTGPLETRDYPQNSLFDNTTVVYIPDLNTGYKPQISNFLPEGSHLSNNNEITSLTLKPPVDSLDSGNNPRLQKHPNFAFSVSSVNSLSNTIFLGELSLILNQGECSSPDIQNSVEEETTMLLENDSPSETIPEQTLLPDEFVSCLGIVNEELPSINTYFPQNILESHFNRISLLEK
Nature of the data set: Inhibition of interleukin-23 binding to human interleukin-23 receptor incubated for 2 hrs by competitive binding ELISA.

In data set [2] the target is T1, Interleukin-23 receptor. In words: Inhibition of interleukin-23 receptor in human DB cells assessed as reduction in IL-23-stimulated STAT3 phosphorylation incubated for 30 mins by HTRF assay. It counts as cell-based. Background: TR-FRET usually uses a lanthanide donor and a delayed reading to cut background.
A short description of data set [3]: Inhibition of interleukin-23 binding to rat interleukin-23 receptor incubated for 2 hrs by competitive binding ELISA. A general note: An ELISA detects its analyte on a solid surface through an enzyme-linked reagent.
A short description of data set [4]: Half life in simulated intestinal fluid at 20 uM by LC-MS/MS analysis. It counts as ADME.
Data set [5] can be described thus: Half life in DTT at 50 uM up up to 120 mins by reverse phase HPLC and UV detection based assay. It counts as physicochemical.
Data set [6] in a line: Half life in simulated gastric fluid at 20 uM by LC-MS/MS analysis. It is filed as ADME.
In data set [7] the target is T1, Interleukin-23 receptor. Nature of the data set: Inhibition of interleukin-23 receptor in human natural killer cells assessed as reduction in IL23/IL18-induced IFNgamma production incubated for 20 to 24 hrs by ELISA. It counts as cell-based.

As usually defined, the IC50 is the concentration at which inhibition is half-maximal. The term half-life denotes the time in which the quantity being followed falls by half. Low readings indicate fast loss, high ones slow loss. Take `CC(=O)N[C@H](C(=O)N[C@@H](CCC(N)=O)C(=O)N[C@H](C(=O)N[C@@H](Cc1c[nH]c2ccccc12)C(=O)N[C@@H](CCC(N)=O)C(=O)N[C@H](C(=O)N[C@@H](Cc1ccc(O)cc1)C(=O)N[C@@H](Cc1c[nH]c2ccccc12)C(=O)N[C@@](C)(CC(C)C)C(=O)N[C@@H](CCC(=O)O)C(=O)N[C@@H](CC(N)=O)C(=O)NCC(N)=O)C(C)(C)S)[C@@H](C)O)C(C)(C)S`: the IC50 in data set [1] is 25 to 100 nM; in data set [2] it was 10 to 25 nM; in data set [3], 100 to 1000 nM. The same compound had a half-life at 20 µM in data set [4] of 180 to 360 min. Moreover, the half-life at 50 µM in data set [5] was > 120 min.

For `CC(=O)N[C@H]1CCSC[C@@H](C(=O)N[C@@H](Cc2ccc(OCCN)cc2)C(=O)N[C@@H](Cc2ccc3ccccc3c2)C(=O)N[C@@](C)(CCCCN)C(=O)N[C@@H](CCCCNC(=O)CC(C)C)C(=O)N[C@@H](CC(N)=O)C(=O)NCC(N)=O)NC(=O)[C@H](CCC(N)=O)NC(=O)[C@H](Cc2c[nH]c3ccccc23)NC(=O)[C@H]([C@@H](C)O)NC(=O)[C@H](CCC(N)=O)NC1=O`, the half-maximal inhibitory concentration (IC50) in data set [1] was < 10 nM; in data set [2] it was < 10 nM; in data set [3], 10 to 25 nM; in data set [7], < 25 nM. For the same compound, the half-life at 20 µM in data set [6] and in data set [4] was > 360 min in each case.

In data set [1], `CC(=O)N[C@H](C(=O)N[C@@H](CCC(N)=O)C(=O)N[C@H](C(=O)N[C@@H](Cc1c[nH]c2ccccc12)C(=O)N[C@@H](CCC(N)=O)C(=O)N[C@H](C(=O)N[C@@H](Cc1ccc(O)cc1)C(=O)N[C@@H](Cc1c[nH]c2ccccc12)C(=O)N[C@@H](CCC(C)C)C(=O)N[C@@H](CCC(=O)O)C(=O)N[C@@H](CC(N)=O)C(=O)NCC(N)=O)C(C)(C)S)[C@@H](C)O)C(C)(C)S` displayed an IC50 of 100 to 1000 nM. For the same compound, in data set [4], the half-life at 20 µM was < 60 min. Further, the half-life at 50 µM in data set [5] is > 120 min.

`CC(=O)N[C@@H](CS)C(=O)N[C@@H](CCC(N)=O)C(=O)N[C@H](C(=O)N[C@@H](Cc1c[nH]c2ccccc12)C(=O)N[C@@H](CCC(N)=O)C(=O)N[C@@H](CS)C(=O)N[C@@H](Cc1ccc(O)cc1)C(=O)N[C@@H](Cc1c[nH]c2ccccc12)C(=O)N[C@@H](CCC(C)C)C(=O)N[C@@H](CCC(=O)O)C(=O)N[C@@H](CC(N)=O)C(=O)NCC(N)=O)[C@@H](C)O` yielded a half-life at 50 µM in data set [5] of 10 to 120 min.

Take `CC(=O)NCCCC[C@H](NC(=O)[C@](C)(CC(C)C)NC(=O)[C@H](Cc1ccc2ccccc2c1)NC(=O)[C@H](Cc1ccc(OCCN)cc1)NC(=O)[C@@H](NC(=O)[C@H](CCC(N)=O)NC(=O)[C@H](Cc1c[nH]c2ccccc12)NC(=O)[C@@H](NC(=O)[C@H](CCC(N)=O)NC(=O)[C@@H](NC(C)=O)C(C)(C)S)[C@@H](C)O)C(C)(C)S)C(=O)N[C@@H](CC(N)=O)C(=O)N[C@@H](CC(N)=O)C(N)=O`: the IC50 in data set [1], in data set [2], in data set [3] and in data set [7] was < 10 nM in each case. The half-life at 20 µM in data set [6] is 180 to 360 min; in data set [4], 120 to 180 min.

Turning to `CC(=O)NCCCC[C@H](NC(=O)[C@](C)(CCCCNC(C)=O)NC(=O)[C@H](Cc1ccc2ccccc2c1)NC(=O)[C@H](Cc1ccc(OCCNC(C)=O)cc1)NC(=O)[C@@H]1CSCC[C@H](NC(C)=O)C(=O)N[C@@H](CCC(N)=O)C(=O)N[C@@H]([C@@H](C)O)C(=O)N[C@@H](Cc2c[nH]c3ccccc23)C(=O)N[C@@H](CCC(N)=O)C(=O)N1)C(=O)N[C@@H](CC(N)=O)C(=O)NCC(N)=O`, the 50% inhibitory concentration (IC50) in data set [1] was < 10 nM; in data set [2], < 10 nM; in data set [3], < 10 nM; in data set [7], < 25 nM. In addition, the half-life at 20 µM in data set [6] is < 60 min; in data set [4] it was 180 to 360 min.

`CC(=O)N[C@@H](CS)C(=O)N[C@@H](C)C(=O)N[C@@H](CC(=O)O)C(=O)N[C@@H](Cc1c[nH]c2ccccc12)C(=O)N[C@H](C(=O)N[C@@H](Cc1c[nH]c2ccccc12)C(=O)N[C@@H](CS)C(=O)N[C@@H](Cc1ccc(O)cc1)C(=O)N[C@@H](Cc1c[nH]c2ccccc12)C(=O)N[C@@H](Cc1cnc[nH]1)C(=O)N[C@H](C(=O)N[C@@H](Cc1ccccc1)C(=O)NCC(=O)N[C@@H](C)C(=O)N1CC[C@H]1C(=O)N[C@H](CCCCN)C(N)=O)[C@@H](C)O)C(C)C`: in data set [5], the half-life at 50 µM fell in the range of 10 to 120 min.

With `CC(=O)N[C@@H](CS)C(=O)N[C@@H](CCCNC(=N)N)C(=O)N[C@H](C(=O)N[C@@H](Cc1c[nH]c2ccccc12)C(=O)N[C@@H](CCC(=O)O)C(=O)N[C@@H](CS)C(=O)N[C@@H](Cc1ccc(O)cc1)C(=O)N[C@@H](Cc1c[nH]c2ccccc12)C(=O)N[C@@H](Cc1cnc[nH]1)C(=O)N[C@@H](CCC(=O)O)C(=O)N[C@@H](Cc1ccccc1)C(=O)NCC(N)=O)[C@@H](C)O` (Ac-CRTWECYWHEFG-NH2), the IC50 in data set [1] was < 500 nM. Moreover, the half-life at 50 µM in data set [5] is < 10 min.

Take `CC(=O)N[C@H]1CCSC[C@@H](C(=O)N[C@@H](Cc2ccc(OCCN)cc2)C(=O)N[C@@H](Cc2ccc3ccccc3c2)C(=O)NC(C)(C)C(=O)N[C@@H](CCC(N)=O)C(=O)N[C@@H](CC(N)=O)C(=O)NCC(N)=O)NC(=O)[C@H](CCC(N)=O)NC(=O)[C@H](Cc2c[nH]c3ccccc23)NC(=O)[C@H]([C@@H](C)O)NC(=O)[C@H](CCC(N)=O)NC1=O` (Ac-[Abu(4-yl)]QTWQC[AEF][2Nal][Aib]QNG-NH2; thioether 1-6): the IC50 was < 10 nM in data set [1], < 10 nM in data set [2], 10 to 25 nM in data set [3] and < 25 nM in data set [7]. The values for the half-life at 20 µM in data set [6] and in data set [4] were 180 to 360 min and 120 to 180 min, respectively.

For `CC(=O)N[C@H]1CCSC[C@@H](C(=O)N[C@@H](Cc2ccc(OCCN)cc2)C(=O)N[C@@H](Cc2ccc3ccccc3c2)C(=O)N[C@@](C)(CCCCN)C(=O)N[C@@H](CCC(=O)O)C(=O)N[C@@H](CC(N)=O)C(=O)N[C@@H](CCC(N)=O)C(N)=O)NC(=O)[C@H](CCC(N)=O)NC(=O)[C@H](Cc2c[nH]c3ccccc23)NC(=O)[C@H]([C@@H](C)O)NC(=O)[C@H](CCC(N)=O)NC1=O` (Ac-[Abu(4-yl)]QTWQC[AEF][2Nal][αMeK]ENQ-NH2; thioether 1-6), the IC50 in data set [1] was < 10 nM; in data set [2] it was < 10 nM; in data set [3] it was < 10 nM; in data set [7] it was < 25 nM. For the same compound, the half-life at 20 µM in data set [6] and in data set [4] was 180 to 360 min in each case.

Regarding `CC(=O)N[C@H]1CCSC[C@@H](C(=O)N[C@@H](Cc2ccc(OCCN)cc2)C(=O)N[C@@H](Cc2ccc3ccccc3c2)C(=O)NC2(C(=O)N[C@@H](CCC(=O)O)C(=O)N[C@@H](CC(N)=O)C(=O)N[C@@H](CC(N)=O)C(N)=O)CCOCC2)NC(=O)[C@H](CCC(N)=O)NC(=O)[C@H](Cc2c[nH]c3ccccc23)NC(=O)[C@H]([C@@H](C)O)NC(=O)[C@H](CCC(N)=O)NC1=O`, the half-life at 50 µM in data set [5] is > 120 min.

Turning to `CC(=O)NCCCC[C@H](NC(=O)[C@@](C)(NC(=O)[C@H](Cc1ccc2ccccc2c1)NC(=O)[C@H](Cc1ccc(OCCN)cc1)NC(=O)[C@@H]1CSCC[C@H](NC(C)=O)C(=O)N[C@@H](CCC(N)=O)C(=O)N[C@@H]([C@@H](C)O)C(=O)N[C@@H](Cc2c[nH]c3ccccc23)C(=O)N[C@@H](CCC(N)=O)C(=O)N1)C(C)C)C(=O)N[C@@H](CC(N)=O)C(=O)NCC(N)=O`, the IC50 in data set [1] is < 10 nM; in data set [2], < 10 nM; in data set [3], < 10 nM; in data set [7] it was < 25 nM. Moreover, the half-life at 20 µM in data set [6] was 60 to 120 min; in data set [4], 120 to 180 min.

As to `CC(=O)N[C@H]1CCSC[C@@H](C(=O)N[C@@H](Cc2ccc(O)cc2)C(=O)N[C@@H](Cc2c[nH]c3ccccc23)C(=O)N[C@@H](CCCNC(=N)N)C(=O)N[C@@H](CCCCN)C(=O)N[C@@H](Cc2ccccc2)C(=O)NCC(=O)NCCOCC(=O)N[C@H](CCCCN)C(N)=O)NC(=O)[C@H](CCC(N)=O)NC(=O)[C@H](Cc2c[nH]c3ccccc23)NC(=O)[C@H]([C@@H](C)O)NC(=O)[C@H](CCCNC(=N)N)NC1=O`, the figures for the IC50 in data set [1], in data set [2] and in data set [3] were 25 to 100 nM, 25 to 100 nM and 100 to 1000 nM, respectively. In addition, in data set [4], the half-life at 20 µM was < 60 min. The half-life at 50 µM in data set [5] was > 120 min.

For the compound `CC(=O)NCCCC[C@H](NC(=O)C(C)(C)NC(=O)[C@H](Cc1ccc2ccccc2c1)NC(=O)[C@H](Cc1ccc(OCCN)cc1)NC(=O)[C@@H](NC(=O)[C@H](CCC(N)=O)NC(=O)[C@H](Cc1c[nH]c2ccccc12)NC(=O)[C@@H](NC(=O)[C@H](CC(N)=O)NC(=O)[C@@H](NC(C)=O)C(C)(C)S)[C@@H](C)O)C(C)(C)S)C(=O)N[C@@H](CC(N)=O)C(=O)N[C@@H](CC(N)=O)C(N)=O`, the IC50 in data set [1], in data set [2], in data set [3] and in data set [7] was < 10 nM in each case. Moreover, the half-life at 20 µM in data set [6] and in data set [4] was > 360 min each time.
